Values of other authors as cited in patent publication US11213608B2, “Compositions including gelatin nanoparticles and methods of use thereof” (Wake Forest University Health Sciences, priority 2018, dated 2022).

Tested on: HepG2 cells

Cc1c(C)c2c(c(C)c1O)CCC(C)(COc1ccc(CC3SC(=O)NC3=O)cc1)O2 (stereo not shown) [TRO, troglitazone]
concentration above which toxic effects are commonly reported: above 100 μM
